Values joined by “and” are separate entries in the source; they are usually repeats but may differ in a detail not shown here. Equal entries are not always repeated.
Test system: Swiss mice, Sarcoma 180 sc, mean tumor weight T/C
Test: NCI In Vivo Anticancer Drug Screen. Data for tumor model Sarcoma 180 (subcutaneous) in Swiss mice
Details: endpoint: mean tumor weight, higher = larger tumour
In short: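 Tumor-bearing mice, transplantable tumor; readout survival or tumor size; result = T/C, treated vs vehicle control.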

[1] = dose: 100.0 mg/kg/injection, schedule: Q01DX007 (ip), vehicle: carboxymethylcellulose (CMC)

For `COc1ccc2c3c([nH]c2c1)[C@H]1C[C@H]2[C@H](C[C@@H](O)[C@H](OC)[C@H]2CO)CN1CC3`, the T/C (dose: 0.5 mg/kg/injection, schedule: Q01DX007 (ip), vehicle: saline) was 120 % of control, the T/C (dose: 1.0 mg/kg/injection, schedule: Q01DX007 (ip), vehicle: saline) was 121 % of control and the T/C (dose: 2.0 mg/kg/injection, schedule: Q01DX007 (ip), vehicle: saline) was 95 % of control. The T/C (dose: 4.0 mg/kg/injection, schedule: Q01DX007 (ip), vehicle: saline) was 94 % of control, the T/C (dose: 8.0 mg/kg/injection, schedule: Q01DX007 (ip), vehicle: saline) was 102 % of control and the T/C (dose: 16.0 mg/kg/injection, schedule: Q01DX007 (ip), vehicle: saline) was 77 % of control. For the same molecule, the T/C (dose: 32.0 mg/kg/injection, schedule: Q01DX007 (ip), vehicle: saline) was 102 % of control.
For `NCC(O)c1ccc(O)c(O)c1` (stereo unspecified), the T/C (dose: 3.1 mg/kg/injection, schedule: Q01DX007 (ip), vehicle: saline) was 84 % of control and the T/C (dose: 12.5 mg/kg/injection, schedule: Q01DX007 (ip), vehicle: saline) was 57 % of control and 77 % of control.
`O=C(O)c1cccc2c3c(cc([N+](=O)[O-])c12)CCCC3` was tested, and the T/C (dose: 1.5 mg/kg/injection, schedule: Q01DX007 (ip), vehicle: carboxymethylcellulose (CMC)) was 157 % of control.
With `[N-]=[N+]=NC1(C(=O)O)CCCC1` the T/C (dose: 66.0 mg/kg/injection, schedule: Q01DX007 (ip), vehicle: carboxymethylcellulose (CMC)) was 71 % of control, the T/C [1] was 60 % of control and the T/C (dose: 225.0 mg/kg/injection, schedule: Q01DX007 (ip), vehicle: carboxymethylcellulose (CMC)) was 63 % of control.
In the case of `CN(N=Nc1n[nH]nc1C(N)=O)c1ccccc1`, the T/C (dose: 31.0 mg/kg/injection, schedule: Q01DX007 (ip), vehicle: carboxymethylcellulose (CMC)) is reported as 65 % of control, the T/C (dose: 62.0 mg/kg/injection, schedule: Q01DX007 (ip), vehicle: carboxymethylcellulose (CMC)) is reported as 73 % of control and the T/C (dose: 125.0 mg/kg/injection, schedule: Q01DX007 (ip), vehicle: carboxymethylcellulose (CMC)) is reported as 70 % of control.
With `CC(=O)OCC(=O)[C@@]1(O)CC[C@H]2[C@@H]3C=C(C)C4=CC(=O)CC[C@]4(C)[C@H]3[C@@H](O)C[C@@]21C` the T/C (dose: 6.1 mg/kg/injection, schedule: Q01DX007 (sc), vehicle: steriod suspending solution) was 67 % of control, the T/C (dose: 10.0 mg/kg/injection, schedule: Q#A X014 (ip), vehicle: methylcellulose (MC)) was 49 % of control and the T/C (dose: 11.8 mg/kg/injection, schedule: Q01DX007 (sc), vehicle: steriod suspending solution) was 43 % of control. For the same molecule, the T/C (dose: 12.5 mg/kg/injection, schedule: Q01DX007 (sc), vehicle: steriod suspending solution) was 50 % of control, the T/C (dose: 15.0 mg/kg/injection, schedule: Q#A X014 (ip), vehicle: methylcellulose (MC)) was 41 % of control and 44 % of control and the T/C (dose: 17.7 mg/kg/injection, schedule: Q01DX007 (sc), vehicle: steriod suspending solution) was 40 % of control. For the same molecule, the T/C (dose: 20.0 mg/kg/injection, schedule: Q01DX007 (sc), vehicle: steriod suspending solution) was 83 % of control, the T/C (dose: 22.5 mg/kg/injection, schedule: Q#A X014 (ip), vehicle: methylcellulose (MC)) was 60 % of control and 64 % of control and the T/C (dose: 25.0 mg/kg/injection, schedule: Q01DX007 (sc), vehicle: steriod suspending solution) was 39 % of control. The T/C (dose: 26.6 mg/kg/injection, schedule: Q01DX007 (sc), vehicle: steriod suspending solution) was 52 % of control, the T/C (dose: 30.0 mg/kg/injection, schedule: Q01DX007 (sc), vehicle: steriod suspending solution) was 55 % of control and the T/C (dose: 33.75 mg/kg/injection, schedule: Q#A X014 (ip), vehicle: methylcellulose (MC)) was 31 % of control and 54 % of control. The T/C (dose: 40.0 mg/kg/injection, schedule: Q01DX007 (sc), vehicle: steriod suspending solution) was 41 % of control, the T/C (dose: 45.0 mg/kg/injection, schedule: Q01DX007 (sc), vehicle: steriod suspending solution) was 58 % of control and 64 % of control and the T/C (dose: 53.0 mg/kg/injection, schedule: Q01DX007 (sc), vehicle: steriod suspending solution) was 71 % of control. The T/C (dose: 60.0 mg/kg/injection, schedule: Q01DX007 (sc), vehicle: steriod suspending solution) was 36 % of control, the T/C (dose: 67.5 mg/kg/injection, schedule: Q01DX007 (sc), vehicle: steriod suspending solution) was 60 % of control and the T/C (dose: 80.0 mg/kg/injection, schedule: Q01DX007 (sc), vehicle: steriod suspending solution) was 53 % of control. For the same molecule, the T/C (dose: 90.0 mg/kg/injection, schedule: Q01DX007 (sc), vehicle: steriod suspending solution) was 31 % of control, the T/C (dose: 100.0 mg/kg/injection, schedule: Q01DX007 (sc), vehicle: steriod suspending solution) was 26 % of control and the T/C (dose: 120.0 mg/kg/injection, schedule: Q01DX007 (sc), vehicle: steriod suspending solution) was 51 % of control. The T/C (dose: 135.0 mg/kg/injection, schedule: Q01DX007 (sc), vehicle: steriod suspending solution) was 27 % of control, the T/C (dose: 150.0 mg/kg/injection, schedule: Q01DX007 (sc), vehicle: steriod suspending solution) was 54 % of control and the T/C (dose: 180.0 mg/kg/injection, schedule: Q01DX007 (sc), vehicle: steriod suspending solution) was 32 % of control. The T/C (dose: 202.5 mg/kg/injection, schedule: Q01DX007 (sc), vehicle: steriod suspending solution) was 24 % of control.
In the case of `C#C[C@]1(OC(C)=O)CC[C@H]2[C@@H]3CC[C@H]4CC=CC[C@]4(C)[C@H]3CC[C@@]21C`, the T/C (dose: 2.5 mg/kg/injection, schedule: Q01DX007 (sc), vehicle: steriod suspending solution) is reported as 84 % of control, the T/C (dose: 5.0 mg/kg/injection, schedule: Q01DX007 (sc), vehicle: steriod suspending solution) is reported as 71 % of control and the T/C (dose: 10.0 mg/kg/injection, schedule: Q01DX007 (sc), vehicle: steriod suspending solution) is reported as 102 % of control.
`CC(NC(=O)C1(N)CCCC1)C(=O)O` (stereo unspecified) was tested, and the T/C (dose: 25.0 mg/kg/injection, schedule: Q01DX007 (ip), vehicle: carboxymethylcellulose (CMC)) was 91 % of control, the T/C [1] was 21 % of control and the T/C (dose: 222.0 mg/kg/injection, schedule: Q01DX007 (ip), vehicle: steriod suspending solution) was 36 % of control. The T/C (dose: 333.0 mg/kg/injection, schedule: Q01DX007 (ip), vehicle: steriod suspending solution) was 25 % of control.
`CCC1OCCN1C(C)C` (stereo unspecified) was tested, and the T/C (dose: 20.0 mg/kg/injection, schedule: Q01DX007 (ip), vehicle: other) was 80 % of control, the T/C (dose: 33.0 mg/kg/injection, schedule: Q01DX007 (ip), vehicle: other) was 75 % of control and the T/C (dose: 55.5 mg/kg/injection, schedule: Q01DX007 (ip), vehicle: saline) was 79 % of control. The T/C (dose: 56.0 mg/kg/injection, schedule: Q01DX007 (ip), vehicle: other) was 63 % of control, the T/C (dose: 83.3 mg/kg/injection, schedule: Q01DX007 (ip), vehicle: saline) was 43 % of control and the T/C (dose: 84.0 mg/kg/injection, schedule: Q01DX007 (ip), vehicle: other) was 49 % of control. The T/C (dose: 125.0 mg/kg/injection, schedule: Q01DX007 (ip), vehicle: saline) was 21 % of control.
In the case of `CC1=C2C(=C[C@@](C)(CO)[C@@H]2O)C(=O)[C@](C)(O)C12CC2`, the T/C (dose: 0.8 mg/kg/injection, schedule: Q01DX007 (ip), vehicle: saline) is reported as 67 % of control and 78 % of control and the T/C (dose: 1.6 mg/kg/injection, schedule: Q01DX007 (ip), vehicle: saline) is reported as 45 % of control.
For `O=CNc1c(Br)cc2c(c1Br)Cc1cc([N+](=O)[O-])ccc1-2`, the T/C (dose: 7.0 mg/kg/injection, schedule: Q01DX007 (ip), vehicle: carboxymethylcellulose (CMC)) was 52 % of control, the T/C (dose: 11.0 mg/kg/injection, schedule: Q01DX007 (ip), vehicle: carboxymethylcellulose (CMC)) was 45 % of control and the T/C (dose: 17.0 mg/kg/injection, schedule: Q01DX007 (ip), vehicle: carboxymethylcellulose (CMC)) was 40 % of control. The T/C (dose: 26.0 mg/kg/injection, schedule: Q01DX007 (ip), vehicle: carboxymethylcellulose (CMC)) was 22 % of control.
For `COC(=O)c1cc([N+](=O)[O-])cc([N+](=O)[O-])c1Cl`, the T/C (dose: 6.0 mg/kg/injection, schedule: Q01DX007 (ip), vehicle: methylcellulose (MC)) was 91 % of control, the T/C (dose: 12.0 mg/kg/injection, schedule: Q01DX007 (ip), vehicle: methylcellulose (MC)) was 111 % of control and the T/C (dose: 25.0 mg/kg/injection, schedule: Q01DX007 (ip), vehicle: methylcellulose (MC)) was 86 % of control.
With `CCc1nc(N)nc(N)c1-c1ccc(Cl)c(Cl)c1.[Cl][Pd][Cl]` the T/C (dose: 6.6 mg/kg/injection, schedule: Q01DX007 (ip), vehicle: carboxymethylcellulose (CMC)) was 95 % of control, the T/C (dose: 8.0 mg/kg/injection, schedule: Q01DX007 (ip), vehicle: methylcellulose (MC)) was 111 % of control and the T/C (dose: 10.0 mg/kg/injection, schedule: Q01DX007 (ip), vehicle: carboxymethylcellulose (CMC)) was 49 % of control. The T/C (dose: 15.0 mg/kg/injection, schedule: Q01DX007 (ip), vehicle: carboxymethylcellulose (CMC)) was 35 % of control, the T/C (dose: 15.0 mg/kg/injection, schedule: Q01DX007 (ip), vehicle: methylcellulose (MC)) was 55 % of control and the T/C (dose: 22.5 mg/kg/injection, schedule: Q01DX007 (ip), vehicle: carboxymethylcellulose (CMC)) was 34 % of control. For the same molecule, the T/C (dose: 30.0 mg/kg/injection, schedule: Q01DX007 (ip), vehicle: methylcellulose (MC)) was 51 % of control.

Reference: PubChem BioAssay AID342 (DTP/NCI, 2004)
